Drawing on paper PMC12040169 (PLOS Biology, 2025), this text covers viability for 78 compounds.

The viability is a read-out of living cells in per cent, often relative to untreated cells.

The series is described as follows: in vitro. The following applies: human, hela cells, % viability.
Take `O=C(CCN1CCn2nc(C(O)C3CC3)cc2C1)NCc1cccs1` (stereo not drawn) [CBK306603]: the viability at 28.5 h, 10 µM is 93.1%.
Consider `Cc1ccc(OCC(O)CN2CCC(C(N)=O)CC2)cc1C` (stereo not drawn) [CBK057100], for which the viability at 28.5 h, 10 µM is 105%.
Take `O=S(=O)(Nc1nc(-c2c(F)cccc2Cl)cs1)c1cc(Cl)c(Cl)s1` [CBK200025]: the viability at 28.5 h, 10 µM came to 92.8%.
For the compound `COc1ccc(CCNC(=O)N(C)C2CCN(C)C2)cc1` (stereo not drawn) [CBK156019], the viability at 28.5 h, 10 µM is 100%.
Regarding `CC(=O)Nc1ccc(S(=O)(=O)Nc2ccc(C(=O)N3CCN(C)CC3)cc2)cc1` [CBK050406], the viability at 28.5 h, 10 µM is 93.1%.
Turning to `Cc1nn(-c2ccc3nnc(C)n3n2)c2c1C(c1ccccc1F)CC(=O)N2` (stereo not drawn) [CBK287898], the viability at 28.5 h, 10 µM came out at 83.3%.
For `COc1c(C)cnc(COC(=O)N2C[C@@H](C)O[C@@H](C)C2)c1C` [CBK200143], the viability at 28.5 h, 10 µM is 96.2%.
Consider `CN1CCN(C(=O)c2[nH]c3ccccc3c2NS(=O)(=O)c2cccc3cccnc23)CC1` [CBK050041], for which the viability at 28.5 h, 10 µM amounted to 87.2%.
Consider `CCN(CC)CCn1c(=N)n(CC(O)c2ccc(C)cc2)c2ccccc21` (stereo not drawn) [CBK262914C], for which the viability at 28.5 h, 10 µM is 104%.
For the compound `NS(=O)(=O)c1ccc(-c2ccc(/C=C3/SC(=S)N(C4CCCCC4)C3=O)o2)cc1` [CBK263127], the viability at 28.5 h, 10 µM amounted to 88%.
Regarding `COc1ccc(C(=O)c2ccc(N3CCN(C4CC(=O)NC4=O)CC3)cc2)cc1F` (stereo not drawn) [CBK268909], the viability at 28.5 h, 10 µM amounted to 94.2%.
The figure for `O=C(CC1C(=O)N(Cc2ccccc2)C(=S)N1Cc1ccccc1)Nc1ccccc1` (stereo not drawn) [CBK263871] is 97.3%; for `Cc1ccc(C2SCC(C(=O)O)N2C(=O)c2cccc(Cl)c2)cc1` (stereo not drawn) [CBK286931] it is 93.3%; for `Cc1ccc(CNC(=O)N2CCC3(CC2)OCCc2c3[nH]c3ccccc23)cc1` [CBK047121] it is 93.3%.
For the compound `CN(CC1(C)COC1)C(=O)c1ccc2c(c1)ncn2C1CC1` [CBK281718], the viability at 28.5 h, 10 µM was 86.8%.
For the compound `c1ccc(Cn2cc(-c3nccnc3OCCn3ccnc3)cn2)cc1` [CBK107102], the viability at 28.5 h, 10 µM amounted to 95.5%.
On to `O=[N+]([O-])c1cc(S(=O)(=O)Nc2cccc(-c3cnco3)c2)ccc1Cl` [CBK067125], for which the viability at 28.5 h, 10 µM turned out to be 95.7%.
Under `COc1ccc(NC(=O)Nc2nn(Cc3c(F)cccc3Cl)cc2Br)c(OC)c1` [CBK266834] stands 83.8%; under `CC1(C)CCCCC1CC(=O)NS(=O)(=O)c1cccc(-c2nnco2)c1` (stereo not drawn) [CBK306477], 79.3%; under `O=S(=O)(c1ccccc1)N1CCN(c2cnccn2)CC1` [CBK287839], 88.9%.
Take `COC(=O)N1CC2(CCCCC2NCCC(F)(F)F)c2ccccc21` (stereo not drawn) [CBK083539T]: the viability at 28.5 h, 10 µM was found to be 90%.
In the case of `O=C(Nc1ccc2c(c1)C(=O)NC2=O)c1ccccc1` [CBK270384], the viability at 28.5 h, 10 µM was 86.5%.
For `Cc1cc(S(=O)(=O)N(C)CCC#N)c(C)cc1Cl` [CBK043787], the viability at 28.5 h, 10 µM stood at 111%.
In the case of `CCC(O)c1cc2n(n1)CCN(C(=O)c1cn(-c3ccccc3)nn1)C2` (stereo not drawn) [CBK306708], the viability at 28.5 h, 10 µM is 93.7%.
Under `O=C1NCCNC(=O)C2(C/C=C/COc3ccccc31)CCCN(C(=O)c1cnco1)C2` (stereo not drawn) [CBK291993] stands 106%; under `Cc1ccc2c(c1)CC(=O)NC21CCN(CCc2noc3ccccc23)CC1` [CBK081072], 92.2%; under `OCC[C@H]1CN2CCCC2CN1Cc1cccn1-c1cccc(F)c1` (stereo partly drawn) [CBK282985], 86.1%.
On to `CCc1cccc2c(CC(=O)NCCn3ccc(C)n3)c(C)[nH]c12` [CBK282698], for which the viability at 28.5 h, 10 µM was determined as 105%.
As for `O=C(c1cccc2ncccc12)N1CCC(c2ccncc2)CC1` [CBK283798], the viability at 28.5 h, 10 µM was determined as 84.2%.
As for `COc1cc(/C=N\Nc2nnc3c(n2)[nH]c2c(C)cccc23)cc(Br)c1O` [CBK262375], the viability at 28.5 h, 10 µM was found to be 106%.
For the compound `CCC(C)(C)c1ccc(S(=O)(=O)N(C)CCC#N)cc1` [CBK043395], the viability at 28.5 h, 10 µM stood at 118%.
Turning to `O=C(O)C1Cc2ccccc2CN1C(=O)c1ccccc1` (stereo not drawn) [CBK286628], the viability at 28.5 h, 10 µM is 102%.
The figure for `COc1cccc2cc(C(=O)N3CCN(CCO)CC3)c(=O)oc12` [CBK293932] is 89.5%; for `Cc1ccc(S(N)(=O)=O)cc1-c1nnc2c3ccccc3c(C)nn12` [CBK266680] it is 104%; for `O=C(NC1CCCCC1)NC1CCN(Cc2nnnn2Cc2ccco2)CC1` [CBK085007] it is 100%.
For `O=C(CSCc1ccc([N+](=O)[O-])cc1)Nc1c[nH]c(=O)[nH]c1=O` [CBK268549], the viability at 28.5 h, 10 µM is 98.5%.
In the case of `O=C(C1=C(O)C(=O)N(CCCN2CCOCC2)C1c1cccnc1)c1cccs1` (stereo not drawn) [CBK264555], the viability at 28.5 h, 10 µM worked out at 113%.
Regarding `COc1cnc(/C=C\c2ccccc2)c(NC(=O)c2cc(C)oc2C)n1` [CBK145222], the viability at 28.5 h, 10 µM amounted to 95.1%.
In the case of `CS(=O)(=O)c1ccc(CN2C[C@@H]3OCC(=O)N(Cc4ccc(F)cc4)[C@@H]3C2)cc1` [CBK289690], the viability at 28.5 h, 10 µM stood at 119%.
For the compound `CC(c1ccccc1)c1nc2cnccn2c1NC(C)(C)C` (stereo not drawn) [CBK283533], the viability at 28.5 h, 10 µM is 92.3%.
On to `O=C(O)C1CCCN1C(=O)Nc1ccccc1Cl` (stereo not drawn) [CBK161381], for which the viability at 28.5 h, 10 µM was found to be 95.8%.
`Cc1ccc(C(=O)N2CCN(S(=O)(=O)c3sc(C(=O)O)c(C)c3C(=O)O)CC2)s1` [CBK297150]: the viability at 28.5 h, 10 µM came to 84.8%.
For the compound `c1csc(-c2cnc3ccccc3n2)c1` [CBK020525], the viability at 28.5 h, 10 µM was found to be 93.2%.
The figure for `O=[N+]([O-])c1cc(S(=O)(=O)N2CCCCCC2)ccc1NCc1ccccc1` [CBK262804] is 88.3%; for `CCOc1cc(OCC)cc(C(=O)N2CCC3(CC2)CC(=O)c2cc(OCC)ccc2O3)c1` [CBK168013] it is 87.2%.
`CNS(=O)(=O)c1ccc(C(C)NC(=O)N2CCN3CCC2CC3)cc1` (stereo not drawn) [CBK304765]: the viability at 28.5 h, 10 µM stood at 92.2%.
Regarding `CN(C)c1ccc(CCNC(=O)c2cn3ccccc3n2)cc1` [CBK281916], the viability at 28.5 h, 10 µM worked out at 87.4%.
`CCCCC(C(=O)O)N1C(=O)C2CC=C(Cl)CC2C1=O` (stereo not drawn) [CBK286536]: the viability at 28.5 h, 10 µM is 91.4%.
As to `CCOc1cc(/C=C2\SC(=N)NC2=O)cc(Cl)c1O` [CBK262955], the viability at 28.5 h, 10 µM is 84.4%.
Take `CCOC(=O)c1[nH]c2ccccc2c1NC(=O)c1ccc(Cl)c(C)c1` [CBK160146]: the viability at 28.5 h, 10 µM is 87%.
Consider `CCCCOc1ccc(S(=O)(=O)n2ccc3cc(N4CCNCC4)ccc32)cc1` [CBK001315C], for which the viability at 28.5 h, 10 µM was 37.9%.
On to `CC(C)C12CN3CC(C(C)C)(CN(C1)C3c1c[nH]c3ccccc13)C2=O` (stereo not drawn) [CBK263740], for which the viability at 28.5 h, 10 µM is 96.1%.
Consider `Cc1ccc(SCCNS(C)(=O)=O)cc1` [CBK026280], for which the viability at 28.5 h, 10 µM was found to be 90.8%.
`CCNC(=O)N1C(CC(=O)OCC)C(=O)NC2CCCCC21` (stereo not drawn) [CBK268030]: the viability at 28.5 h, 10 µM came to 116%.
`CCCCCOc1ccc(-c2ccc(Cl)nn2)cc1` [CBK007044]: the viability at 28.5 h, 10 µM is 83.7%.
As for `Cc1cc(N2CCOC(c3nc(C)n[nH]3)C2)c2ccc(F)c(F)c2n1` (stereo not drawn) [CBK306018], the viability at 28.5 h, 10 µM was found to be 92.2%.
As for `CO[C@H]1CC[C@H](C(=O)N2C3CCC2CC(O)(c2ccco2)C3)CC1` (stereo partly drawn) [CBK284107], the viability at 28.5 h, 10 µM came out at 96.7%.
In the case of `Cn1c(/C(C#N)=C\c2ccc(-c3ccc(S(N)(=O)=O)cc3)o2)nc2ccccc21` [CBK266380], the viability at 28.5 h, 10 µM turned out to be 95%.
Consider `O=C(CSc1nnc(-c2cccnc2)n1-c1ccc(Br)cc1)Nc1ccc(F)cc1` [CBK266174], for which the viability at 28.5 h, 10 µM was determined as 111%.
The figure for `CN(C)c1ncccc1OC1CCN(c2ccnc(C3CC3)n2)C1` (stereo not drawn) [CBK306182] is 56.3%; for `COc1ccc(C2C=C(c3ccc(OC)c(OC)c3)Nc3ncnn32)c(OC)c1` (stereo not drawn) [CBK293934] it is 93.3%; for `COc1cccc(NC(=S)NCCCN2CCOCC2)c1` [CBK264548] it is 123%.
Turning to `CC(C)(C)C1=CC2=NC3(CCCCC3)[C@@H]3C[C@@H](O)[C@@H](O)[C@@H]3N2O1` [CBK303235], the viability at 28.5 h, 10 µM worked out at 111%.
With `COc1cc(NC(=O)c2cc3nc(-c4cccs4)cc(C(F)(F)Cl)n3n2)c(C(C)=O)cc1OC` [CBK268312], the viability at 28.5 h, 10 µM was 100%.
`CC(NC(=O)c1ccccc1)c1nnc(SCC(=O)N2CCOCC2)n1C` (stereo not drawn) [CBK269647]: the viability at 28.5 h, 10 µM is 86%.
Take `CCCN(CCC)C(=O)c1nc(C)c(C(=O)N(CCC)CCC)nc1C` [CBK023232]: the viability at 28.5 h, 10 µM amounted to 89.2%.
Consider `Cc1ccc(S(=O)(=O)CCC(=O)Nc2ccc3sc(C)nc3c2)cc1` [CBK287706], for which the viability at 28.5 h, 10 µM worked out at 99.3%.
Consider `CCn1c(C)nc2cc(NC(=O)Cc3c(C)noc3C)ccc21` [CBK281834], for which the viability at 28.5 h, 10 µM is 100%.
For the compound `O=C(NC(c1ccc(F)cc1)c1ccc2ccccc2n1)C1CCN(CCCN2CCOCC2)CC1` (stereo not drawn) [CBK148118], the viability at 28.5 h, 10 µM worked out at 91.8%.
On to `Cc1ccc2c(c1)CCCN2C(=O)c1csc2c(C(F)(F)F)cc(N3CCOCC3)nc12` [CBK028367], for which the viability at 28.5 h, 10 µM worked out at 116%.
As to `COc1ccc(/C=C2\SC(Nc3ccc(Cl)c(C(=O)O)c3)=NC2=O)cc1C` [CBK067743], the viability at 28.5 h, 10 µM came out at 99.1%.
Under `CCNc1nc(-c2ccc3[nH]ccc3c2)cn2ccnc12` [CBK038002] stands 99.5%.
As for `O=C1N/C(=N/N=C/c2ccc(O)cc2)SC1Cc1ccccc1[N+](=O)[O-]` (stereo not drawn) [CBK261684], the viability at 28.5 h, 10 µM was found to be 91.9%.
Consider `CCCCSc1nc(N)cc(N2CCCN(C(=O)C3CCCO3)CC2)n1` (stereo not drawn) [CBK307209], for which the viability at 28.5 h, 10 µM amounted to 86.8%.
As for `Cc1ccc(NC(=O)N2CCCC(CO)C2)cc1` (stereo not drawn) [CBK156065], the viability at 28.5 h, 10 µM is 77.9%.
Regarding `CCOc1cc2c(cc1CN(Cc1ccc3c(c1)OCO3)CC(C)O)CCC2` (stereo not drawn) [CBK286474], the viability at 28.5 h, 10 µM is 87.2%.
For the compound `O=S(=O)(c1ccccc1)c1cncc(N2CCNCC2)n1` [CBK051078C], the viability at 28.5 h, 10 µM is 89.3%.
`Cc1ccccc1-c1cnc(NS(C)(=O)=O)c(C(=O)N(C)C)c1` [CBK106430]: the viability at 28.5 h, 10 µM came out at 103%.
